Consider 20 compounds from patent US10040781B2, “Tank-binding kinase inhibitor compounds” (Gilead Sciences, Inc., priority 2014, dated 2018).

One experiment addresses hJAK2 (Homo sapiens (Human), UniProt O60674). The experiment in a line: hJAK2 LANCE TR-FRET enzymatic assay. It counts as biochemical. To be noted: read-out: JAK2 IC50.
Another experiment addresses TBK1 (Homo sapiens (Human), UniProt Q9UHD2). The experiment in a line: TBK1 TR-FRET enzymatic assay.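 Further: phosphorylation of a biotinylated Ser/Thr peptide by purified full-length recombinant TBK1, read by TR-FRET after 240 min at 25 °C, IC50 is the geometric mean of at least four runs.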

Chain of TBK1 (Q9UHD2 whole entry): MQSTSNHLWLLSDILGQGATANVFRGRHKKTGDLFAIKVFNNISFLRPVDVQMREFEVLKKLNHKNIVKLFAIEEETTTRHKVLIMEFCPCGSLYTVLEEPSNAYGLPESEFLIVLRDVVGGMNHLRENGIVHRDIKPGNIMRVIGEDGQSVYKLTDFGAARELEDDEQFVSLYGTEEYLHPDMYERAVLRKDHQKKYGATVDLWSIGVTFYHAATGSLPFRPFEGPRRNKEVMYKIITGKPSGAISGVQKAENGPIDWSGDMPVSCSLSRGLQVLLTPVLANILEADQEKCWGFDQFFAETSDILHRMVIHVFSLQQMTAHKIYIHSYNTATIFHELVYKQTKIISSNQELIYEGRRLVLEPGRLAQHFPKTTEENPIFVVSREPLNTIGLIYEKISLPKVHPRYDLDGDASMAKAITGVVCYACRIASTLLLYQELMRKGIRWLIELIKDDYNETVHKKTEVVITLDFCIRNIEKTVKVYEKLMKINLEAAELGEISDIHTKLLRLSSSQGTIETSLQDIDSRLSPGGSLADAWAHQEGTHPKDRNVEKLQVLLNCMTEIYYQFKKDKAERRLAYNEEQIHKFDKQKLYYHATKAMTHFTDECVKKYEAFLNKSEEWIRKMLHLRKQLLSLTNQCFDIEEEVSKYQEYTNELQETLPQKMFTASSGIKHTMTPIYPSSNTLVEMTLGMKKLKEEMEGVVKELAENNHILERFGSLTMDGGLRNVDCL
Chain of hJAK2 (O60674 whole entry): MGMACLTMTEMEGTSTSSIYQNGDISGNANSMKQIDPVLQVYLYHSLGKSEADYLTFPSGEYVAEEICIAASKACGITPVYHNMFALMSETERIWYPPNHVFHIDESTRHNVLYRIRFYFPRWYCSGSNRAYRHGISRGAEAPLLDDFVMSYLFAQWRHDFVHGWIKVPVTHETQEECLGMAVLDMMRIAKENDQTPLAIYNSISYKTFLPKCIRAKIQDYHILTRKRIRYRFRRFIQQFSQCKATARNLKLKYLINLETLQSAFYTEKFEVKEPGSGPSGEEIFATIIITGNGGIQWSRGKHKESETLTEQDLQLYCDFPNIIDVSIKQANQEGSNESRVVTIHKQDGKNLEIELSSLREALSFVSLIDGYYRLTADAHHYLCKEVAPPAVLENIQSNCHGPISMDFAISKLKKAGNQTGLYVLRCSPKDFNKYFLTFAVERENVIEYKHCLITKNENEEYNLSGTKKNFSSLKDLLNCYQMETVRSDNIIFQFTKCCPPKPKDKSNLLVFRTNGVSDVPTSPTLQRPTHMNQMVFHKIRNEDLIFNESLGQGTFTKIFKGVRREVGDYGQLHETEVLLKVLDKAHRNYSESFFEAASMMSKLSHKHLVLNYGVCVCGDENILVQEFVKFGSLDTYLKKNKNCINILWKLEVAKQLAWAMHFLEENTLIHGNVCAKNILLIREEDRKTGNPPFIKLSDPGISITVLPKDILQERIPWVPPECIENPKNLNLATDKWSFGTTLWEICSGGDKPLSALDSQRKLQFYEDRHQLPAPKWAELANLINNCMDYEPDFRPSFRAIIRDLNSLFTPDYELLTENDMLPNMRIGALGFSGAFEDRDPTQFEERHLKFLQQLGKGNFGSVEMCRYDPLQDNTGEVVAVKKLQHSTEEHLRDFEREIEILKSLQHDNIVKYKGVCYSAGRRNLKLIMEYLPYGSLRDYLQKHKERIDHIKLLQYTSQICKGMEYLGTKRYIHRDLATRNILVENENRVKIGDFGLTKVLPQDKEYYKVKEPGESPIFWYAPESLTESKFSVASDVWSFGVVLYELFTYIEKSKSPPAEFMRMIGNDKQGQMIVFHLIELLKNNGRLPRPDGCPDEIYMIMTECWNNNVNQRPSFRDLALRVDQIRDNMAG

As to `N#Cc1cc(-c2ncnc(Nc3ccc(N4CCN(C5COC5)CC4)cc3)n2)ccc1OC1CCN(C(=O)CO)CC1(F)F` (racemic) [Example 151, 2-((3,3-difluoro-1-(2-hydroxyacetyl)piperidin-4-yl)oxy)-5-(4-((4-(4-(oxetan-3-yl)piperazin-1-yl)phenyl)amino)-1,3,5-triazin-2-yl)benzonitrile], on hJAK2, the IC50 came to 122 nM.

On to `CC1(C)CN(C(=O)CO)CCC1Oc1ccc(-c2ncnc(Nc3ccc(N4CCN(C5COC5)CC4)cc3)n2)cc1C#N` (racemic) [Example 174, 2-((1-(2-hydroxyacetyl)-3,3-dimethylpiperidin-4-yl)oxy)-5-(4-((4-(4-(oxetan-3-yl)piperazin-1-yl)phenyl)amino)-1,3,5-triazin-2-yl)benzonitrile], for which the half-inhibitory concentration (IC50) on hJAK2 was found to be 160 nM.

On TBK1, `N#Cc1cc(-c2ncnc(Nc3ccc(C4CCNCC4)cc3)n2)ccc1O[C@H]1CCCC[C@H]1F` (racemic) [Example 292, rac-2-(((1S,2R)-2-fluorocyclohexyl)oxy)-5-(4-((4-(piperidin-4-yl)phenyl)amino)-1,3,5-triazin-2-yl)benzonitrile] had an IC50 of 6 nM.

In the case of `N#Cc1cc(-c2ncnc(Nc3ccc(N4CCN(C5COC5)CC4)cc3)n2)ccc1O[C@H]1CCN(C(=O)CO)CC1(F)F` (single isomer, unassigned) [Example 152], at hJAK2, the IC50 came to 75 nM.

On to `N#Cc1cc(-c2ncnc(Nc3ccc(N4CCN(C5COC5)CC4)cc3)n2)ccc1O[C@@H]1CCN(C(=O)CO)CC1(F)F` (single isomer, unassigned) [Example 153], for which the IC50 at hJAK2 is 56 nM.

As to `CC1(C)CN(C(=O)CO)CC[C@@H]1Oc1ccc(-c2ncnc(Nc3ccc(N4CCN(C5COC5)CC4)cc3)n2)cc1C#N` (single isomer, unassigned) [Example 175], the IC50 at hJAK2 came out at 397 nM.

As for `CC1(C)CN(C(=O)CO)CC[C@H]1Oc1ccc(-c2ncnc(Nc3ccc(N4CCN(C5COC5)CC4)cc3)n2)cc1C#N` (single isomer, unassigned) [Example 176], the half-inhibitory concentration (IC50) at hJAK2 was found to be 133 nM.

Take `COc1cc(Nc2ncnc(-c3ccc(OC4CCOCC4)c(C#N)c3)n2)ccc1N1CCN(C)CC1` [Example 4, 5-(4-((3-methoxy-4-(4-methylpiperazin-1-yl)phenyl)amino)-1,3,5-triazin-2-yl)-2-((tetrahydro-2H-pyran-4-yl)oxy)benzonitrile]: the IC50 at hJAK2 is 53 nM.

As to `CN1CCN(c2ccc(Nc3ncnc(-c4ccc(OC5CCOCC5)c(C#N)c4)n3)cc2)CC1` [Example 12, 5-(4-((4-(4-methylpiperazin-1-yl)phenyl)amino)-1,3,5-triazin-2-yl)-2-((tetrahydro-2H-pyran-4-yl)oxy)benzonitrile], at hJAK2, the IC50 is 162 nM.

For the compound `C[C@H](O)C(=O)N1CC[C@@H](Oc2ccc(-c3ncnc(Nc4ccc(N5CCN(C6COC6)CC5)cc4)n3)cc2C#N)C1` [Example 88, 2-(((R)-1-((S)-2-hydroxypropanoyl)pyrrolidin-3-yl)oxy)-5-(4-((4-(4-(oxetan-3-yl)piperazin-1-yl)phenyl)amino)-1,3,5-triazin-2-yl)benzonitrile], the IC50 at TBK1 is 26 nM.

Compound `C[C@@H](O)C(=O)N1CC[C@@H](Oc2ccc(-c3ncnc(Nc4ccc(N5CCN(C6COC6)CC5)cc4)n3)cc2C#N)C1` [Example 91, 2-(((R)-1-((R)-2-hydroxypropanoyl)pyrrolidin-3-yl)oxy)-5-(4-((4-(4-(oxetan-3-yl)piperazin-1-yl)phenyl)amino)-1,3,5-triazin-2-yl)benzonitrile] gave an IC50 on TBK1 of 145 nM.

At TBK1, `N#Cc1cc(-c2ncnc(Nc3ccc(N4CCN(C5COC5)CC4)cc3)n2)ccc1O[C@@H]1CN(C(=O)CO)C[C@@H]1F` [Example 101, 2-(((3R,4S)-4-fluoro-1-(2-hydroxyacetyl)pyrrolidin-3-yl)oxy)-5-(4-((4-(4-(oxetan-3-yl)piperazin-1-yl)phenyl)amino)-1,3,5-triazin-2-yl)benzonitrile] showed an IC50 of 14 nM.

For `Cc1n[nH]c(C)c1C(=O)N1CC[C@H](Oc2ccc(-c3ncnc(Nc4ccc(N5CCN(C6COC6)CC5)cc4)n3)cc2C#N)[C@H](F)C1` [Example 135, 2-(((3R,4S)-1-(3,5-dimethyl-1H-pyrazole-4-carbonyl)-3-fluoropiperidin-4-yl)oxy)-5-(4-((4-(4-(oxetan-3-yl)piperazin-1-yl)phenyl)amino)-1,3,5-triazin-2-yl)benzonitrile], the IC50 at hJAK2 amounted to 212 nM.

Turning to `N#Cc1cc(-c2ncnc(Nc3ccc(N4CCN(C5COC5)CC4)cc3)n2)ccc1OC1CCN(C(=O)c2ncc[nH]2)CC1(F)F` (centres unmarked) [Example 163, 2-((3,3-difluoro-1-(1H-imidazole-2-carbonyl)piperidin-4-yl)oxy)-5-(4-((4-(4-(oxetan-3-yl)piperazin-1-yl)phenyl)amino)-1,3,5-triazin-2-yl)benzonitrile], at hJAK2, the IC50 was 248 nM.

On to `C[C@H](O)C(=O)N1CC[C@@H](Oc2ccc(-c3ncnc(Nc4ccc(N5CCN(C6COC6)CC5)cc4)n3)cc2C#N)[C@H](F)C1` [Example 234, 2-(((3R,4R)-3-fluoro-1-((S)-2-hydroxypropanoyl)piperidin-4-yl)oxy)-5-(4-((4-(4-(oxetan-3-yl)piperazin-1-yl)phenyl)amino)-1,3,5-triazin-2-yl)benzonitrile], for which, on hJAK2, the IC50 was 669 nM.

In the case of `C[C@H](O)C(=O)N1CC[C@H](Oc2ccc(-c3ncnc(Nc4ccc(N5CCN(C6COC6)CC5)cc4)n3)cc2C#N)[C@H](F)C1` [Example 238, 2-(((3R,4S)-3-fluoro-1-((8)-2-hydroxypropanoyl)piperidin-4-yl)oxy)-5-(4-((4-(4-(oxetan-3-yl)piperazin-1-yl)phenyl)amino)-1,3,5-triazin-2-yl)benzonitrile], on hJAK2, the IC50 stood at 445 nM.

On TBK1, `N#Cc1cc(-c2ncnc(Nc3ccc4c(c3)OC(F)(F)O4)n2)ccc1OC1CCOCC1` [Example 275, 5-(4-((2,2-difluorobenzo[d][1,3]dioxol-5-yl)amino)-1,3,5-triazin-2-yl)-2-((tetrahydro-2H-pyran-4-yl)oxy)benzonitrile] showed an IC50 of 115 nM.

For `N#Cc1cc(-c2ncnc(Nc3ccc(N4CCN(C5CCOCC5)CC4)cc3)n2)ccc1O[C@H]1CCN(C(=O)CO)C[C@H]1F` [Example 306, 2-(((3R,4S)-3-fluoro-1-(2-hydroxyacetyl)piperidin-4-yl)oxy)-5-(4-((4-(4-(tetrahydro-2H-pyran-4-yl)piperazin-1-yl)phenyl)amino)-1,3,5-triazin-2-yl)benzonitrile], the IC50 on TBK1 was 2 nM.

For `C[C@H](O)C(=O)N1CC[C@H](Oc2ccc(-c3ncnc(Nc4ccc(C5CCN(C6COC6)CC5)cc4)n3)cc2C#N)[C@H](F)C1` [Example 311, 2-(((3R,4S)-3-fluoro-1-((S)-2-hydroxypropanoyl)piperidin-4-yl)oxy)-5-(4-((4-(1-(oxetan-3-yl)piperidin-4-yl)phenyl)amino)-1,3,5-triazin-2-yl)benzonitrile], the IC50 on TBK1 came out at 3 nM.

Regarding `N#Cc1cc(-c2ncnc(Nc3ccc(N4CCN(C5COC5)CC4)cc3)n2)ccc1O[C@H]1CCN(C(=O)c2cc(Cl)n[nH]2)C[C@H]1F` [Example 324, 2-(((3R,4S)-1-(3-chloro-1H-pyrazole-5-carbonyl)-3-fluoropiperidin-4-yl)oxy)-5-(4-((4-(4-(oxetan-3-yl)piperazin-1-yl)phenyl)amino)-1,3,5-triazin-2-yl)benzonitrile], the half-inhibitory concentration (IC50) on hJAK2 came to 237 nM.

In general, IC50 refers to the concentration needed to halve the response being measured.
